One molecule from patent publication US7563918B2, “Solid and crystalline ibandronate sodium and processes for preparation thereof” (Teva Pharmaceutical Industries Ltd., priority 2004, dated 2009) can be followed below.

A short description of the data set: Storage stability of crystalline form (polymorphic transformation). Format: physicochemical. To be noted: stored under 100% relative humidity at 40° C. for 3 days. An excerpt: In another embodiment, the present invention provides a solid crystalline form of ibandronate sodium denominated Form QQ. Form QQ is characterized by x-ray powder diffraction reflections at 6.2, 25.9, 26.7, 31.1, and 37.2±0.2 degrees two-theta. Form QQ can be further characterized by x-ray powder diffraction reflections at 16.9, 17.3, 21.5, 24.7, and 29.2±0.2 degrees two-theta. […] Form QQ also has a particle size distribution of not more than 100μpreferably not more than 60μ. […] can be a in the range of a monohydrate to a trihydrate. Form QQ can be further characterized by TGA, showing a weight loss of about 5 to about 12%.

A value given as a limit tells only on which side of the number the result lay.

On to `CCCCCN(C)CCC(O)(P(=O)([O-])O)P(=O)(O)O.[Na+]` [Form QQ, (1-hydroxy-3-(N-methyl-N-pentylamino)propylidene) bisphosphonic acid monosodium salt], for which the “transformation into other polymorphic forms when stored” value is at most 5%.
